# From article PMC12751057, “The energy landscape of N-ribosidic bond cleavage catalysed by 2′-deoxynucleoside 5′-phosphate N-hydrolase 1” (Biochemical Journal, 2025)
# Changes are numbered by the printed parent chain.
# Legend:
# [1] = molecular target: T1, 2′-deoxynucleoside 5′-phosphate N-hydrolase 1 (HsDNPH1) (Homo sapiens, UniProt O43598); assay: single-turnover stopped-flow UV kinetics, k2/k1 ratio from global fit; steady-state hydrolysis; type: biochemical
# T1 construct: gene DNPH1
# T1 sequence (O43598 2-174): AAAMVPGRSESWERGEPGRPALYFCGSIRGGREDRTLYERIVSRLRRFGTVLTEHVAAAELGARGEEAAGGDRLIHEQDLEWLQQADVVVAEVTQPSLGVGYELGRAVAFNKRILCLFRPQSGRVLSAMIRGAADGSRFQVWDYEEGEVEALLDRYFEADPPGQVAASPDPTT
# [2] = molecular target: T2, 2′-deoxynucleoside 5′-phosphate N-hydrolase 1 (HsDNPH1) (Homo sapiens, UniProt O43598, E55Q); assay: stopped-flow burst and single-turnover kinetics of the purified variant (turnover, k burst); type: biochemical
# T2 construct: gene DNPH1
# T2 sequence (O43598 2-174 E55Q): T1 sequence (O43598 2-174) with E54Q
# [3] = molecular target: T3, 2′-deoxynucleoside 5′-phosphate N-hydrolase 1 (HsDNPH1) (Homo sapiens, UniProt O43598, E104Q); assay: ITC; also stopped-flow UV binding kinetics (KD app […]) and differential UV spectroscopy
# T3 construct: gene DNPH1
# T3 sequence (O43598 2-174 E104Q): T1 sequence (O43598 2-174) with E103Q
# [4] = molecular target: T1, 2′-deoxynucleoside 5′-phosphate N-hydrolase 1 (HsDNPH1); assay: steady-state UV inhibition assay, competitive fit; type: biochemical
Kd [1],rate constant [2],Kd [3],Ki [4],Structure (SMILES)
2.36 µM,0.270 ± 0.001 s⁻¹,1.6 ± 0.4 µM,,"O=c1[nH]c(=O)n([C@H]2C[C@H](O)[C@@H](COP(=O)(O)O)O2)cc1CO [5hmdUMP, 5-hydroxymethyl-2′-deoxyuridine 5′-monophosphate]"
,,,6900 ± 800 µM,O=P(O)(O)OC[C@H]1OC(O)[C@H](O)[C@@H]1O (stereo partly shown) [ribose 5-phosphate]
